34 compounds from patent US9932340B2, “Substituted indoles” (AbbVie Inc., priority 2014, dated 2018) can be followed below.

This experiment deals with SUV420H1 enzyme (Homo sapiens, UniProt Q4FZB7). The experiment is described as follows: TR-FRET SAH SUV420H1 enzyme inhibition assay. In kind it is biochemical. Conditions: Histone Peptide H4(8-30)me1 and SAM, overnight at room temp, TR-FRET detection of SAH, read-out: TR-FRET SAH_SUV420H1 IC50. In short, it runs like this: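 SUV420H1 (90 nM) preincubated 30 min with compound (3-fold dilutions, 50 to 0.00075 μM), then H4(8-30)me1 peptide 5 nM and SAM 4 nM added, overnight at room temp. SAH product detected by TR-FRET with Tb anti-SAH antibody and Oregon Green-SAH in RIPA buffer, 4 h; IC50 from Hill fit, asymptotes fixed 0-100%.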
Sequence of SUV420H1 enzyme (Q4FZB7 whole entry): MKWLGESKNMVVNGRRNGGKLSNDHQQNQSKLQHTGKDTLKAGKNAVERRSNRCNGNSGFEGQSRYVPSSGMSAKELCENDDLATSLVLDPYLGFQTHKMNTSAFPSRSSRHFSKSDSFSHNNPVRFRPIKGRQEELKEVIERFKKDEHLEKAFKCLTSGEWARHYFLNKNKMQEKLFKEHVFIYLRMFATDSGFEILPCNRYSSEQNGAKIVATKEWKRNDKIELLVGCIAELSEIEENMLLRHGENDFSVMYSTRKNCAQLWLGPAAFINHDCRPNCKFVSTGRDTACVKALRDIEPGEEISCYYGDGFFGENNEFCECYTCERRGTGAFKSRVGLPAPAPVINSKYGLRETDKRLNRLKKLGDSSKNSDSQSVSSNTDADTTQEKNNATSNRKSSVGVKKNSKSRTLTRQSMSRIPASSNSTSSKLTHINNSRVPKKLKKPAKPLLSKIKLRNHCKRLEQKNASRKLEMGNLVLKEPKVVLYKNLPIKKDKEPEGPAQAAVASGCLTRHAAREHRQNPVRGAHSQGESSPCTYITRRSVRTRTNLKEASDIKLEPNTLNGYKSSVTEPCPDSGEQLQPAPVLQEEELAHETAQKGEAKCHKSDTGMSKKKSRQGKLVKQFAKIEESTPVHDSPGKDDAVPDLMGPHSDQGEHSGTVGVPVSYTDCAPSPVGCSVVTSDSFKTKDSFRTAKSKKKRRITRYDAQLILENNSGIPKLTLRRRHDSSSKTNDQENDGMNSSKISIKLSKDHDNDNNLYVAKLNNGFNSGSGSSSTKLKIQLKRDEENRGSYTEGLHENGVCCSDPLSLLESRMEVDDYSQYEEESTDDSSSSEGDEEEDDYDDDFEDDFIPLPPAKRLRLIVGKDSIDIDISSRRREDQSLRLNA
For orientation: TR-FRET usually uses a lanthanide donor and a delayed reading to cut background.
As a reminder, the IC50 is the concentration that gives 50% inhibition. Take `CCn1nc(C)c(C(=O)NCc2cc3cc(Cl)cc(Cn4cnc5c(N)ncnc54)c3[nH]2)c1C` [Example 188, N-({7-[(6-amino-9H-purin-9-yl)methyl]-5-chloro-1H-indol-2-yl}methyl)-1-ethyl-3,5-dimethyl-1H-pyrazole-4-carboxamide]: the IC50 amounted to 507 nM.
Then `Cc1cccc(F)c1CNCc1cc2cc(Cl)cc(Cn3cnc4c(N)ncnc43)c2[nH]1` [Example 244, 9-[(5-chloro-2-{[(2-fluoro-6-methylbenzyl)amino]methyl}-1H-indol-7-yl)methyl]-9H-purin-6-amine], with 1940 nM.
For the compound `COc1ccc(C(=O)NCc2cc3cc(Cl)cc(Cn4cnc5c(N)ncnc54)c3[nH]2)cc1` [Example 258, N-({7-[(6-amino-9H-purin-9-yl)methyl]-5-chloro-1H-indol-2-yl}methyl)-4-methoxybenzamide], the IC50 stood at 4580 nM.
Then `CCC(=O)c1cc2cc(Cl)cc(Cn3cnc4c(N)ncnc43)c2[nH]1` [Example 90, 1-{7-[(6-amino-9H-purin-9-yl)methyl]-5-chloro-1H-indol-2-yl}propan-1-one], with 2240 nM.
Then `NCc1cc2cc(-c3cccc(C(N)=O)c3)cc(Cn3cnc4c(N)ncnc43)c2[nH]1` [Example 40, 3-{2-(aminomethyl)-7-[(6-amino-9H-purin-9-yl)methyl]-1H-indol-5-yl}benzamide], with 425 nM; and `N#Cc1ccc(C(=O)NCc2cc3c(Cl)ccc(Cn4cnc5c(N)ncnc54)c3[nH]2)c(Cl)c1` [Example 282, N-({7-[(6-amino-9H-purin-9-yl)methyl]-4-chloro-1H-indol-2-yl}methyl)-2-chloro-4-cyanobenzamide], with 72.3 nM; and `Cc1nnccc1C(=O)NCc1cc2cc(C3=CCC(F)(F)CC3)cc(Cn3cnc4c(N)ncnc43)c2[nH]1` [Example 201, N-({7-[(6-amino-9H-purin-9-yl)methyl]-5-(4,4-difluorocyclohex-1-en-1-yl)-1H-indol-2-yl}methyl)-3-methylpyridazine-4-carboxamide], with 58.9 nM.
The value for `CC(=O)Nc1ccc(C(=O)NCc2cc3cc(Cl)cc(Cn4cnc5c(N)ncnc54)c3[nH]2)cc1` [Example 313, 4-(acetylamino)-N-({7-[(6-amino-9H-purin-9-yl)methyl]-5-chloro-1H-indol-2-yl}methyl)benzamide] was over 50000 nM; that for `Nc1ncnc2c1ncn2Cc1cc(Cl)cc2cc(CNC(=O)Cc3ccc(F)cc3)[nH]c12` [Example 254, N-({7-[(6-amino-9H-purin-9-yl)methyl]-5-chloro-1H-indol-2-yl}methyl)-2-(4-fluorophenyl)acetamide] was over 50000 nM; that for `Cc1sccc1C(=O)NCc1cc2cc(Cl)cc(Cn3cnc4c(N)ncnc43)c2[nH]1` [Example 156, N-({7-[(6-amino-9H-purin-9-yl)methyl]-5-chloro-1H-indol-2-yl}methyl)-2-methylthiophene-3-carboxamide] was 7920 nM.
Regarding `N#Cc1ccccc1C(=O)NCc1cc2cc(Cl)cc(Cn3cnc4c(N)ncnc43)c2[nH]1` [Example 274, N-({7-[(6-amino-9H-purin-9-yl)methyl]-5-chloro-1H-indol-2-yl}methyl)-2-cyanobenzamide], the IC50 was determined as 11300 nM.
`NCc1cc2cc(C3=CCC(F)(F)CC3)cc(Cn3cnc4c(N)ncnc43)c2[nH]1` [Example 14, 9-{[2-(aminomethyl)-5-(4,4-difluorocyclohex-1-en-1-yl)-1H-indol-7-yl]methyl}-9H-purin-6-amine]: the concentration for half-maximal inhibition (IC50) was 186 nM.
Turning to `Cc1ccc(C(=O)NCc2cc3cc(Cl)cc(Cn4cnc5c(N)ncnc54)c3[nH]2)cc1` [Example 246, N-({7-[(6-amino-9H-purin-9-yl)methyl]-5-chloro-1H-indol-2-yl}methyl)-4-methylbenzamide], the IC50 was found to be 7290 nM.
Consider `Nc1ncnc2c1ncn2Cc1cc(Cl)cc2cc(CNC(=O)c3ccc4[nH]nnc4c3)[nH]c12` [Example 332, N-({7-[(6-amino-9H-purin-9-yl)methyl]-5-chloro-1H-indol-2-yl}methyl)-1H-benzotriazole-5-carboxamide], for which the IC50 was 2020 nM.
Then `C=Cc1cc(Cn2cnc3c(N)ncnc32)c2[nH]c(CN)cc2c1` [Example 10, 9-{[2-(aminomethyl)-5-ethenyl-1H-indol-7-yl]methyl}-9H-purin-6-amine], with 1870 nM; and `CCc1onc(C)c1C(=O)NCc1cc2cc(Cl)cc(Cn3cnc4c(N)ncnc43)c2[nH]1` [Example 185, N-({7-[(6-amino-9H-purin-9-yl)methyl]-5-chloro-1H-indol-2-yl}methyl)-5-ethyl-3-methyl-1,2-oxazole-4-carboxamide], with 691 nM.
Take `Cc1[nH]c2cc(C(=O)NCc3cc4cc(Cl)cc(Cn5cnc6c(N)ncnc65)c4[nH]3)ccc2c1C` [Example 374, N-({7-[(6-amino-9H-purin-9-yl)methyl]-5-chloro-1H-indol-2-yl}methyl)-2,3-dimethyl-1H-indole-6-carboxamide]: the IC50 was determined as 261 nM.
Then `N#CCc1ccc(-c2cc(Cn3cnc4c(N)ncnc43)c3[nH]c(CN)cc3c2)cc1` [Example 45, (4-{2-(aminomethyl)-7-[(6-amino-9H-purin-9-yl)methyl]-1H-indol-5-yl}phenyl)acetonitrile], with 356 nM; and `Nc1ncnc2c1ncn2Cc1cc(Cl)cc2cc(CNCc3cc(Cl)cc(Cl)c3)[nH]c12` [Example 212, 9-[(5-chloro-2-{[(3,5-dichlorobenzyl)amino]methyl}-1H-indol-7-yl)methyl]-9H-purin-6-amine], with 3640 nM; and `N#Cc1ccc(C(=O)NCc2cc3cc(C4=CCOCC4)cc(Cn4cnc5c(N)ncnc54)c3[nH]2)c(F)c1` [Example 285, N-({7-[(6-amino-9H-purin-9-yl)methyl]-5-(3,6-dihydro-2H-pyran-4-yl)-1H-indol-2-yl}methyl)-4-cyano-2-fluorobenzamide], with 57.9 nM.
Then `CC(C)(O)CC(=O)NCc1cc2cc(Cl)cc(Cn3cnc4c(N)ncnc43)c2[nH]1` [Example 103, N-({7-[(6-amino-9H-purin-9-yl)methyl]-5-chloro-1H-indol-2-yl}methyl)-3-hydroxy-3-methylbutanamide], with 25300 nM.
On to `Nc1ncnc2c1ncn2Cc1cc(Cl)cc2cc(CNCc3ccccc3F)[nH]c12` [Example 214, 9-[(5-chloro-2-{[(2-fluorobenzyl)amino]methyl}-1H-indol-7-yl)methyl]-9H-purin-6-amine], for which the IC50 came to 2840 nM.
Consider `Nc1ncnc2c1ncn2Cc1cc(Cl)cc2cc(CNC(=O)c3c(F)cccc3F)[nH]c12` [Example 228, N-({7-[(6-amino-9H-purin-9-yl)methyl]-5-chloro-1H-indol-2-yl}methyl)-2,6-difluorobenzamide], for which the IC50 amounted to 2420 nM.
Turning to `N#Cc1ccc(-c2ccc(Cn3cnc4c(N)ncnc43)c3[nH]c(CN)cc23)cc1` [Example 82, 4-{2-(aminomethyl)-7-[(6-amino-9H-purin-9-yl)methyl]-1H-indol-4-yl}benzonitrile], the IC50 worked out at 939 nM.
On to `CNc1ccccc1C(=O)NCc1cc2cc(Cl)cc(Cn3cnc4c(N)ncnc43)c2[nH]1` [Example 275, N-({7-[(6-amino-9H-purin-9-yl)methyl]-5-chloro-1H-indol-2-yl}methyl)-2-(methylamino)benzamide], for which the IC50 amounted to 13200 nM.
Then `N#Cc1ccc(C(=O)NCc2cc3cc(C4=CCNCC4)cc(Cn4cnc5c(N)ncnc54)c3[nH]2)c(Cl)c1` [Example 277, N-({7-[(6-amino-9H-purin-9-yl)methyl]-5-(1,2,3,6-tetrahydropyridin-4-yl)-1H-indol-2-yl}methyl)-2-chloro-4-cyanobenzamide], with 35.1 nM; and `CNC(=O)CCc1c[nH]c2c(Cn3cnc4c(N)ncnc43)cccc12` [Example 2, 3-{7-[(6-amino-9H-purin-9-yl)methyl]-1H-indol-3-yl}-N-methylpropanamide], with 36900 nM.
Turning to `Nc1ncnc2c1ncn2Cc1cc(Cl)cc2cc(CN3CCS(=O)(=O)CC3)[nH]c12` [Example 125, 9-({5-chloro-2-[(1,1-dioxidothiomorpholin-4-yl)methyl]-1H-indol-7-yl}methyl)-9H-purin-6-amine], the IC50 is 4620 nM.
Then `Nc1ncnc2c1ncn2Cc1cc(Cl)cc2cc(CNC(=O)c3ccc(Cl)cc3)[nH]c12` [Example 221, N-({7-[(6-amino-9H-purin-9-yl)methyl]-5-chloro-1H-indol-2-yl}methyl)-4-chlorobenzamide], with 6240 nM; and `Cc1onc(-c2ccccc2)c1C(=O)NCc1cc2cc(Cl)cc(Cn3cnc4c(N)ncnc43)c2[nH]1` [Example 326, N-({7-[(6-amino-9H-purin-9-yl)methyl]-5-chloro-1H-indol-2-yl}methyl)-5-methyl-3-phenyl-1,2-oxazole-4-carboxamide], with 6200 nM; and `Nc1ncnc2c1ncn2Cc1cc(Cl)cc2cc(CNC(=O)CN3CCOCC3)[nH]c12` [Example 127, N-({7-[(6-amino-9H-purin-9-yl)methyl]-5-chloro-1H-indol-2-yl}methyl)-2-(morpholin-4-yl)acetamide], with 6000 nM.
The value for `Nc1ncnc2c1ncn2Cc1cc(Cl)cc2cc(CO)[nH]c12` [Example 7, {7-[(6-amino-9H-purin-9-yl)methyl]-5-chloro-1H-indol-2-yl}methanol] was 22200 nM; that for `CC1CCCCC1C(=O)NCc1cc2cc(Cl)cc(Cn3cnc4c(N)ncnc43)c2[nH]1` (stereo not shown) [Example 132, N-({7-[(6-amino-9H-purin-9-yl)methyl]-5-chloro-1H-indol-2-yl}methyl)-2-methylcyclohexanecarboxamide] was 6250 nM.
The value for `CC(C)C(=O)NCc1cc2cc(Cl)cc(Cn3cnc4c(N)ncnc43)c2[nH]1` [Example 99, N-({7-[(6-amino-9H-purin-9-yl)methyl]-5-chloro-1H-indol-2-yl}methyl)-2-methylpropanamide] was 25100 nM.
